Assay results taken from paper PMC10419307, “The Effect of Metal Ions (Fe, Co, Ni, and Cu) on the Molecular-Structural, Protein Binding, and Cytotoxic Properties of Metal Pyridoxal-Thiosemicarbazone Complexes” (International Journal of Molecular Sciences, 2023).
Where two headings read alike, the source gives them in different places.

Legend:
MCF-7 breast cancer [1] = system: MCF-7 breast cancer; parameters: method as in PMID 36364539; conditions: MCF-7, MTT test; cited from earlier work
[2] = system: HCT116 colorectal carcinoma; assay: CV viability assay; assay type: cell-based, Human; conditions: 72 h
Description: (§1) Human cell lines (A375 melanoma, MCF-7 breast cancer, HCT116 colorectal carcinoma, A2780 ovarian cancer, and MRC5 lung fibroblasts) were purchased from American Type Culture Collection (Rockville, MD, USA).
(§2) The A2780 cells were cultivated in DMEM, while all of the other cell lines were cultivated in the HEPES-buffered RPMI-1640 medium. The cell culture mediums were supplemented with penicillin (100 units/mL), streptomycin (100 μg/mL), and 10% inactivated FBS. All of the cells were cultivated at 37 °C in a humidified atmosphere with 5% CO2.
(§3) The cells were seeded overnight in 96-well plates: A2780 and MRC-5 8 × 10^3 cells/well, HCT 116 6 × 10^3 cells/well, A375 5 × 10^3 cells/well, and MCF-7 at 10 × 10^3 cells/well [58]. All of the cells were treated with the following concentrations of investigated compounds: 100, 50, 25, 12.5, 6.25, 3.125, and 1.56 μM, except for the A2780 cells, which were treated with the following concentrations for the Cu compound only: 25, 12.5, 6.25, 3.125, 1.56, 0.78, and 0.39 μM. After 72 h of treatment, viability assays were conducted.

MRC5 lung fibroblasts [3] = assay: CV viability assay; assay type: cell-based, Human; conditions: 72 h
Description: as §1, §2, §3

A2780 ovarian cancer [4] = assay: CV viability assay; assay type: cell-based, Human; conditions: 72 h
Description: as §1, §2, §3

A375 melanoma [5] = assay: CV viability assay; assay type: cell-based, Human; conditions: 72 h
Description: as §1, §2, §3

MCF-7 breast cancer [6] = assay: CV viability assay; assay type: cell-based, Human; conditions: MCF-7, CV, 72 h
Description: as §1, §2, §3

[7] = biological target: T1, bovine serum albumin (BSA) (Bos taurus, UniProt P02769); assay: Spectrofluorometric titration, binding to BSA; conditions: for ΔHb / ΔSb: van't Hoff, 300-310 K
T1 construct: purchased Merck
Description: (§4) The binding affinities of complexes towards bovine serum albumin (BSA) and human serum albumin (HSA) were analyzed using the spectrofluorometric measurements on the Cary Eclipse MY2048CH03 instrument. The scan rate was set to 600 nm min^−1, with both slits being 5 nm. The excitation wavelength for BSA was set to 295 nm and for HSA to 280 nm. These wavelengths are characteristic of the tryptophan residues in the active pocket of proteins. The spectra were recorded from 310 to 500 nm. The concentration of both proteins was held constant at 5 × 10^−6 M, and prepared in 1 M phosphate buffer saline of pH 7.4.
(§5) The measurements were repeated at three temperatures (27, 32, and 37 °C) to mimic the body temperature and to allow for the calculation of the thermodynamic parameters of binding using the vant’t Hoff equation (Equation (2)):(2) lnKb=−ΔHb/RT+ΔSb/R where ΔHb, ΔSb, and ΔGb represent the change in the enthalpy, entropy, and free energy of the binding process, respectively.

[8] = system: HCT116 colorectal carcinoma; assay: MTT viability assay; assay type: cell-based, Human; conditions: 72 h
Description: as §1, §2, §3

MRC5 lung fibroblasts [9] = assay: MTT viability assay; assay type: cell-based, Human; conditions: 72 h
Description: as §1, §2, §3

A2780 ovarian cancer [10] = assay: MTT viability assay; assay type: cell-based, Human; conditions: 72 h
Description: as §1, §2, §3

A375 melanoma [11] = assay: MTT viability assay; assay type: cell-based, Human; conditions: 72 h
Description: as §1, §2, §3

MCF-7 breast cancer [12] = assay: MTT viability assay; assay type: cell-based, Human; conditions: MCF-7, MTT, 72 h
Description: as §1, §2, §3

BSA = biological target: T2, BSA (Bos taurus, UniProt P02769); assay: Competitive spectrofluorometric measurements with warfarin; assay type: binding, bovine; conditions: for number of binding sites (n), competitive measurements with warfarin: BSA with equimolar warfarin; for BSA subdomain the complex binds to: concluded from competition with warfarin
T2 construct: purchased Merck
Description: as §4
The competitive measurements were performed in the presence of warfarin, a site-specific marker for BSA subdomain IIA [33]. The equimolar concentrations of BSA and warfarin were prepared (5 × 10^−6 M), and after 30 min of incubation, the titrations using the solutions of the investigated complexes were conducted. The final concentrations of the added complexes were the same as for the previous experiments.

[13] = biological target: human serum albumin (HSA) (Homo sapiens, UniProt P02768); assay: Spectrofluorometric titration, binding to HSA; conditions: for ΔHb / ΔSb: van't Hoff, 300-310 K
Description: as §4, §5

T2 sequence (P02769 25-607): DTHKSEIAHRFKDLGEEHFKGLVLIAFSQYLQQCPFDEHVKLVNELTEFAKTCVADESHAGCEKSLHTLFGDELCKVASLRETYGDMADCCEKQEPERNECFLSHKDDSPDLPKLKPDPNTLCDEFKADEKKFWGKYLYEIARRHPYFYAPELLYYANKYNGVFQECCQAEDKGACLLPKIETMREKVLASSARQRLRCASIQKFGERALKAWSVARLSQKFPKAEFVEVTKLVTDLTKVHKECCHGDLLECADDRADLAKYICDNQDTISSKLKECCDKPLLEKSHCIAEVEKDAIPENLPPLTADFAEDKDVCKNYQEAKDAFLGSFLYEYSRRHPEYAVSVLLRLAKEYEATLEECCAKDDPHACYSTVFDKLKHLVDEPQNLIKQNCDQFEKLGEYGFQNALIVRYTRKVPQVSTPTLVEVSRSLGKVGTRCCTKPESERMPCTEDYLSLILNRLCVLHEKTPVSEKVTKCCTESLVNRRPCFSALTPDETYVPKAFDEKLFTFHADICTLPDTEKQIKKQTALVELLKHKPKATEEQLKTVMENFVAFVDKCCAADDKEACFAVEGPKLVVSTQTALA
T1 sequence (P02769 25-607): as above
human serum albumin (HSA), sequence (P02768 25-609): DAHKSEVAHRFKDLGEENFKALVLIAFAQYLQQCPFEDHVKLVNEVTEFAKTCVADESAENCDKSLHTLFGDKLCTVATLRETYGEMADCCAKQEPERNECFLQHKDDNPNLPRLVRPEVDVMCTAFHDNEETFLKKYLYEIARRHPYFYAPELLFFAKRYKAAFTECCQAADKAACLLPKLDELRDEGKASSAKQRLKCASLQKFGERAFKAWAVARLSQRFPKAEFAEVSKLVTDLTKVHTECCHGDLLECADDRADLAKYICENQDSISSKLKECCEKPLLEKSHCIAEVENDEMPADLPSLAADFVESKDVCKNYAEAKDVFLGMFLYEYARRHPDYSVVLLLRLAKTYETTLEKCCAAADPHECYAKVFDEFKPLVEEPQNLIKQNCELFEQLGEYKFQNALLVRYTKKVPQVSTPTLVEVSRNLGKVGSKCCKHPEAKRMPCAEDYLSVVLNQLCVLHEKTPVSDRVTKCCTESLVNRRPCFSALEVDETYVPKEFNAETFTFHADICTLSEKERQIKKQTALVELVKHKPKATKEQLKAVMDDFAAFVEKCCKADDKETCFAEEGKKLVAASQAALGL

SMILES | IC50 [2] [µM] | IC50 (MRC5 lung fibroblasts [3]) [µM] | IC50 (A2780 ovarian cancer [4]) [µM] | IC50 (A375 melanoma [5]) [µM] | IC50 (MCF-7 breast cancer [6]) [µM] | n (number of binding places) ([7]; T 300 K) | ΔGb ([7]; T 300 K) [kcal/mol] | n (number of binding places) ([7]; T 305 K) | ΔGb ([7]; T 305 K) [kcal/mol] | n (number of binding places) ([7]; T 310 K) | ΔGb ([7]; T 310 K) [kcal/mol] | ΔHb [7] [kcal/mol] | IC50 [8] [µM] | IC50 (MRC5 lung fibroblasts [9]) [µM] | IC50 (A2780 ovarian cancer [10]) [µM] | IC50 (A375 melanoma [11]) [µM] | IC50 (MCF-7 breast cancer [12]) [µM] | number of binding sites (n), competitive measurements with warfarin (BSA) | BSA subdomain the complex binds to (BSA) | n (number of binding places) ([13]; T 300 K) | other results
N.N.[Cl][Pt][Cl] [cisplatin] |  |  |  |  |  |  |  |  |  |  |  |  |  |  |  |  |  |  |  |  | IC50 (MCF-7 breast cancer [1]): 33.6 ± 4.8 µM
Cc1[nH+]cc(CO)c(C=NN=C(N)[S-])c1[O-].Cc1[nH+]cc(CO)c(C=NN=C(N)[S-])c1[O-].O.[Cl-].[Co+3] [Co-PLTSC] | > 100 | > 100 | > 100 | > 100 | > 100 | 1.1 | -7.34 | 1.1 | -7.74 | 1.1 | -8.15 | 16.8 | > 100 | > 100 | > 100 | > 100 | > 100 | 1.01 | subdomains IIA and IIB | 1.0 | Binding constant (Kb), competitive measurements with warfarin (BSA; BSA with equimolar warfarin (5 × 10^−6 M), 30 min incubation): 52500 M⁻¹; reduction percentages of the binding constants (BSA; BSA with warfarin vs without warfarin): 10%; ΔGb ([13]; T 300 K): -6.74 kcal/mol; n (number of binding places) ([13]; T 305 K): 1.0; ΔGb ([13]; T 305 K): -6.91 kcal/mol; n (number of binding places) ([13]; T 310 K): 1.0; ΔGb ([13]; T 310 K): -7.05 kcal/mol; ΔHb [13]: 3.04 kcal/mol; ΔSb [13]: 136 J mol^−1 K^−1
Cc1[nH+]cc(CO)c(C=NNC(N)=S)c1[O-].O.[Cl-].[Cl-].[Cl-].[Fe+3] [Fe-PLTSC, [Fe(PLTSC)Cl2(H2O)]Cl] | > 100 | > 100 | 93.5 ± 9.2 | > 100 | > 100 | 1.1 | -7.03 | 1.1 | -7.22 | 1.1 | -7.39 | 3.7 | > 100 | > 100 | 86.3 ± 13.1 | > 100 | > 100 | 1.10 | subdomain IIIA | 1.2 | ΔSb [7]: 149 J mol^−1 K^−1; ΔGb ([13]; T 300 K): -8.08 kcal/mol; n (number of binding places) ([13]; T 305 K): 1.2; ΔGb ([13]; T 305 K): -8.46 kcal/mol; n (number of binding places) ([13]; T 310 K): 1.1; ΔGb ([13]; T 310 K): -8.82 kcal/mol; ΔHb [13]: 13.9 kcal/mol; ΔSb [13]: 307 J mol^−1 K^−1
Cc1[nH+]cc(CO)c(C=NNC(N)=S)c1[O-].Cc1[nH+]cc(CO)c(C=NNC(N)=S)c1[O-].O.O=[N+]([O-])[O-].O=[N+]([O-])[O-].[Ni+2] [Ni-PLTSC, Ni-pyridoxal-thiosemicarbazone] | > 100 | > 100 | > 100 | > 100 | > 100 | 1.2 | -9.97 | 1.2 | -9.8 | 1.2 | -9.66 | -19 | > 100 | > 100 | > 100 | > 100 | > 100 | 1.30 | subdomain IIIA | 1.2 | ΔSb [7]: −126 J mol^−1 K^−1; ΔGb ([13]; T 300 K): -8.87 kcal/mol; n (number of binding places) ([13]; T 305 K): 1.2; ΔGb ([13]; T 305 K): -8.89 kcal/mol; n (number of binding places) ([13]; T 310 K): 1.2; ΔGb ([13]; T 310 K): -8.89 kcal/mol; ΔHb [13]: -7.5 kcal/mol; ΔSb [13]: 15.5 J mol^−1 K^−1
